# Laboratory results reported in PMC10002220, “In Vivo Reversal of P-Glycoprotein-Mediated Drug Resistance in a Breast Cancer Xenograft and in Leukemia Models Using a Novel, Potent, and Nontoxic Epicatechin EC31” (International Journal of Molecular Sciences, 2023).
# Read-outs that look alike come from different tables or passages of the source.
# Tests used:
# [1] = test system: P-gp; assay: DOX efflux in P388ADR cells; type: cell-based, mouse; conditions: 1 µM modulator; after 180 min of efflux; P388ADR preloaded with 20 µM DOX
# Procedure: Figure 2 Effect of methylated catechin derivatives on intracellular DOX accumulation and DOX efflux in the P-gp-overexpressing cancer cells. […] Then, the cells were washed, and the intracellular DOX level was measured using flow cytometer. (A) LCC6MDR, (B) P388ADR, and (C) K562/P-gp. […] (D) In the efflux study, P388ADR cells were firstly incubated with 20 µM DOX for 45 min. […] At 60, 120, and 180 min, the cells were harvested, and the intracellular DOX level was measured. At 180 min, ** represents p < 0.01, and *** represents p < 0.001, both being relative to P388ADR incubated with DMSO only. […] N = 3 independent experiments. DMSO was used as a solvent control, and the highest amount used was 0.5%.
# We investigated if methylated catechin derivatives could inhibit P-gp-mediated drug efflux in P-gp-overexpressing cells. […] Without a modulator, intracellularly, the DOX level was maintained at 80% and 11% after 180 min for P388 and P388ADR cells, respectively (Figure 2D). […] After 180 min of efflux, the intracellular DOX level could be maintained at 61% (p < 0.001), 59% (p < 0.01), 44 % (p < 0.001), and 37%, respectively (Figure 2D).
# [2] = test system: K562 cells; assay: EC31 efflux in K562 cells; type: cell-based, human; conditions: after 150 min of efflux, preincubated with 1 µM
# Procedure: (§1) N = 3 independent experiments.
# (§2) After incubation, the medium was removed, and cells were washed with cold PBS twice. To the cell pellet, 300 μL of acetonitrile was added. The cells were sonicated for 10 min at 50 Hz using Intertek-CD-3800(A) sonicator. The lysed cells were then spun at 14,000 rpm for 10 min at room temperature. The supernatant containing EC31 was saved and was filtered with 0.45 µm syringe filter before UPLC-MS/MS analysis. For the efflux assay, the cells were preincubated with 1 μM EC31 at 37 °C for 2.5 h. The cells were then washed with PBS, were resuspended in drug-free medium, and were further incubated at 37 °C. The cells were collected at 0, 30, 60, and 150 min, respectively. The intracellular EC31 at different time points was analyzed as described in the Section 4.9.
# [3] = test system: K562/P-gp cells; assay: EC31 efflux in K562/P-gp cells; type: cell-based, human; conditions: after 150 min of efflux, preincubated with 1 µM
# Procedure: as §1, §2
# [4] = In vivo toxicity study of EC31 alone and combined with PTX; conditions: q2d x 12
# Procedure: (§3) (A) In vivo toxicity study of EC31 alone and of its combination with PTX was conducted. BALB/c mice were randomized into five groups with five mice in each group. Body weight of BALB/c mice during treatments was measured every two days. The treatment groups included (1) solvent control (5% NMP + 5% Cremophor EL + 90% PBS to dissolve EC31 and 5% Ethanol + 5% Cremophor EL + 90% PBS to dissolve PTX), (2) PTX (12 mg/kg i.v.), (3) EC31 (30 mg/kg i.p.), (4) EC31 (30 mg/kg i.p.) + PTX (12 mg/kg i.v.), or (5) EC31 (60 mg/kg i.p.) + PTX (12 mg/kg i.v.). The administration was performed every other day 12 times (q2d x 12). The loss of body weight or appetite and treatment-related mortality were monitored and defined as toxicity. (B) BALB/c nude mice were subcutaneously xenografted with LCC6MDR. When the tumor reached 150–300 mm^3, the mice were randomized and administered once with (1) EC31 alone, (2) PTX alone, or (3) EC31 + PTX. […] The tumors were taken out, and their weights were measured. Intratumor concentration of EC31 or PTX was measured using UPLC-MS/MS, and the actual concentration of PTX or EC31 was normalized to the tumor weight. […] Tumor volume and body weight were monitored throughout the treatment period. […] The tumor volume, tumor weight, and doubling time were measured. The number of animal deaths was recorded during the treatment period. […]
# [5] = test system: LCC6MDR xenograft; assay: In vivo PTX and EC31 accumulation in LCC6MDR tumor
# Procedure: as §3
# [6] = test system: MRP1; conditions: Cpds at 1 μM; IC50 of DOX without/with modulator; cited from earlier work
# [7] = test system: fibroblast cells; parameters: method as in PMID 25985195, PMID 34597896; conditions: cited from earlier work
# [8] = test system: P-gp; parameters: method as in PMID 25985195, PMID 34597896; conditions: cited from earlier work
# [9] = target: P-gp (Homo sapiens, UniProt P08183); assay: EC50 for reversing drug resistance in LCC6MDR cells (cell proliferation assay); conditions: for EC50: EC50 for Reversing MDR, LCC6MDR
# [10] = test system: P-gp; assay: EC50 for reversing drug resistance in P388ADR cells (cell proliferation assay)
# P-gp (Homo sapiens, UniProt P08183), sequence (P08183 whole entry): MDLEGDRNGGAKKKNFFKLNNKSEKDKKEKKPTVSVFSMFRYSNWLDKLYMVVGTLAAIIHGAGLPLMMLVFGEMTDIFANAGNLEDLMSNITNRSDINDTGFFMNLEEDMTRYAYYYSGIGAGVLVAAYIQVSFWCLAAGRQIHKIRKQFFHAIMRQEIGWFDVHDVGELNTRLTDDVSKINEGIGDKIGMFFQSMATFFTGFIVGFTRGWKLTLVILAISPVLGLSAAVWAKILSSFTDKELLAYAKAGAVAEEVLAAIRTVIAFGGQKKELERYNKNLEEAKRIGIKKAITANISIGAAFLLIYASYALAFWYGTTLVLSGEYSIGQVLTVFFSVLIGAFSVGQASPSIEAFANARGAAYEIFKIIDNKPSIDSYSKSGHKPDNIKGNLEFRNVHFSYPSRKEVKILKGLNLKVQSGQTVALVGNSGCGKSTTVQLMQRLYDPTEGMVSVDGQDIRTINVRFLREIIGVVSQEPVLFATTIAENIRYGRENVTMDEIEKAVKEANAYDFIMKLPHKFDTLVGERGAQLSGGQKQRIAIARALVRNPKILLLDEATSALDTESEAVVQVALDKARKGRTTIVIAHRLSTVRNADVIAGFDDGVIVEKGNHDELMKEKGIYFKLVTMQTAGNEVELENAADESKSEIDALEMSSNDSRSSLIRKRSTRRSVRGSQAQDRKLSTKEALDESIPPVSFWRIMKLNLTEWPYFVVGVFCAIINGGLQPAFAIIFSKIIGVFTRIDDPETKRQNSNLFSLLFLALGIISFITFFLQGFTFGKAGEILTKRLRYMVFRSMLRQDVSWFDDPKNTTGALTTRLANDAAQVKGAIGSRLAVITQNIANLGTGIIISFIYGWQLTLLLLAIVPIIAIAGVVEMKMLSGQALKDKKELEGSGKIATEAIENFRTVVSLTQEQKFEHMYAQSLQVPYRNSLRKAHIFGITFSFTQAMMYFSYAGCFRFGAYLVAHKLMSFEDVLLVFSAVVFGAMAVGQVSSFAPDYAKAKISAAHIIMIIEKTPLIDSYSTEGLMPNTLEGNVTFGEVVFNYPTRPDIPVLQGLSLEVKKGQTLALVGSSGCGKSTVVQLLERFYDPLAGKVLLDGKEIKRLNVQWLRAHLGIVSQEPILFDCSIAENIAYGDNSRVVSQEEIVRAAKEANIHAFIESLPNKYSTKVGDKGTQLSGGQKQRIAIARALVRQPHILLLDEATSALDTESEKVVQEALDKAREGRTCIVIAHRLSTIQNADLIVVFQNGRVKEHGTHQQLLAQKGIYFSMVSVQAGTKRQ
smiles,measurement,setting,value
COc1cc(OC)c2c(c1)O[C@H](c1ccc(OC)c(OC)c1)[C@H](OC(=O)c1ccc(F)c(NC(=O)c3cc(OC)c(OC)c(OC)c3)c1)C2 [EC31],Relative intracellular DOX level (%),[1],44%
same,EC31 remaining in cells,[2],about 23%
same,EC31 remaining in cells,[3],~16%
same,mortality or toxicity symptoms,[4]; EC31 30 mg/kg i.p. alone,did not cause any mortality or toxicity symptoms
same,body weight loss,[4]; EC31 30 or 60 mg/kg i.p. + PTX 12 mg/kg i.v.,≤ 15%
same,increase of intratumor PTX level compared to PTX alone,"[5]; EC31 30 mg/kg i.p. + PTX 12 mg/kg i.v., at 180 min",6 fold
same,time intratumor EC31 is maintained above its in vitro EC50 (94 nM),"[5]; EC31 alone 30 mg/kg i.p., LCC6MDR xenograft",420 min
same,2008MRP1 MRP1-modulating activity RF (relative fold),[6],1.3
same,IC50,[7],> 100000 nM
same,effect on plasma membrane level of P-gp,[8],did not affect
same,EC50,"[9]; DOX Resistance, concentration that reduces IC50 of DOX by half",159 ± 21 nM
same,EC50,"[9]; PTX Resistance, concentration that reduces IC50 of PTX by half",94 ± 21 nM
same,fold lower EC50 than that of verapamil,[9]; reversing PTX resistance in LCC6MDR,about 4.7 fold
same,EC50,"[10]; read-out: EC50 for Reversing MDR, DOX Resistance, P388ADR, concentration that reduces IC50 of DOX by half",186 ± 31 nM
same,EC50,"[10]; read-out: EC50 for Reversing MDR, PTX Resistance, P388ADR, concentration that reduces IC50 of PTX by half",249 ± 18 nM
